Assay results reported in BindingDB's records for doi:10.1021/jm8008647 (Ewha Womans University, 2008).
pKi: −log10 of the molar value.

Target: T1, Adenosine receptor A3 (Rattus norvegicus, UniProt P28647)
T1 sequence (P28647 whole entry): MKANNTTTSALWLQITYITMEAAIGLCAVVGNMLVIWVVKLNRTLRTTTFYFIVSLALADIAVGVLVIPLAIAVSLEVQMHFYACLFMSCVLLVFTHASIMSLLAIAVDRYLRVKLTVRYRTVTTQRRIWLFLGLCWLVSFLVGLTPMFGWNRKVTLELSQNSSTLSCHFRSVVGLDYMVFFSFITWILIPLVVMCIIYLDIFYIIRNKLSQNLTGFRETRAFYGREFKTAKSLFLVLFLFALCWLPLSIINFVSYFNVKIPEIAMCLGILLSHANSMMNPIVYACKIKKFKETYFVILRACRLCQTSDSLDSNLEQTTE
Assay: Displacement of [125I]I-AB-MECA from rat adenosine A3 receptor expressed in CHO cells

SMILES: O[C@@H]1[C@H](O)CS[C@H]1n1cnc2c(NCc3cccc(I)c3)ncnc21 [(2R,3R,4S)-2-(6-(3-Iodobenzylamino)-9H-purin-9-yl)-tetrahydrothiophene-3,4-diol]
- pKi: 7.32
